Assay results: patent US20190000983A1, “AN EYE DROP SOLUTION FOR ENHANCED HYALURONIC ACID RETENTION AND DELIVERY” (THE JOHNS HOPKINS UNIVERSITY, priority 2015, published 2019)
Like-named read-outs stand apart in the source and are kept apart here. Ends that are not written are not given here.

Experiments:
[1] = test system: rabbit conjunctiva tissue sections (sialic acid on mucin-1; collagen type I); details: for localisation of peptide staining on conjunctiva sections: biotin-conjugated peptide 1.0 mg/ml, compared with anti-mucin-1 / anti-collagen type I antibody
Experimental: To visualize binding of SABpep and ColBpep to the ocular surface, we performed immunohistochemistry with biotin-conjugated peptides on tissue section of rabbit conjunctiva. Conjunctival tissue dissected from rabbit eyes were fixed with 4% paraformaldehyde (PFA) solution (Electron Microscopy Sciences, Hatfield, Pa.), embedded and sectioned (thickness-5 μm) in paraffin. The sections were first incubated with biotin-conjugated peptides (1.0 mg/ml in PBS pH 7.4) for 1 h at room temperature, washed thrice with PBS and then stained with streptavidin-Texas Red conjugate (Vector Laboratories, CA) in accordance to manufacturer's protocol. The samples were then washed again three times, mounted with DAPI mounting medium (Vector Laboratories) and imaged with Zeiss Axio Imager 2 microscope (Carl Zeiss, Jena, Germany). Sections stained with only secondary antibody served as negative control. Mouse anti-mucin-1 primary antibody (Novus Biologicals, Littleton, Colo.) and mouse anti-collagen type I antibody (Abcam, Cambridge, Mass.) were used as replacements to SABpep and ColBpep in the positive controls, respectively, and stained with goat anti-mouse IgG secondary antibody (Life Technologies, NY).
To examine if SABpep binds specifically to sialic acid segment on the oligosaccharide chains, paraffin embedded and 4% PFA fixed rabbit conjunctiva tissue sections were stained with three different groups were selected (SABpep, sialidase treated+SABpep, SA+SABpep). Sections in the first group were stained with SABpep as described in the main text; sections in the second group were treated with sialidase (α2-3,6,8 Neuraminidase, 60 U/ml; New England Biolabs, Ipswich, Mass.) first for one hour at 37° C. before the addition of SABpep; and finally, sections in the third group were stained with SABpep pre-incubated with sialic acid (N-Acetylneuraminic acid, 100 mM; Carbosynth, Compton, Berkshire, UK) for one hour at room temperature. The staining procedure was the same in all three groups (streptavidin-fluorescein was used for detecting biotin conjugated SABpep; DAPI was used as counterstain for nuclei). The sections were imaged using Zeiss Axio Imager 2 microscope.

conjunctiva tissue = assay: HABA assay: screening of biotin-conjugated ocular surface-binding peptides on conjunctival tissue; set-up: species or system rabbit; details: six peptides of Table 1, biotin-conjugated, 1.0 mg/mL in PBS, 20 min, compared to control
Source text: Conjunctival tissue from the ocular surface was targeted to test the binding affinity of the multiple peptides. Conjunctiva was harvested from rabbit eyes (Pel-Freez Biologicals, Rogers, Ariz.) with the underlying tenon's capsule removed, and then cut into 6 mm pieces with a biopsy punch. The conjunctival epithelium was kept intact for testing SABpep, while the epithelium was scrapped off with a cell scraper for testing type I collagen-binding peptide (ColBpep). The tissue pieces were merged in the biotin-conjugated peptide solutions (1.0 mg/mL in PBS, pH 7.4; Life Technologies, NY) for 20 minutes and then washed three times with PBS to remove any unbound peptides. A HABA (4′-hydroxyazobenzene-2-carboxylic acid) assay (Life Technologies, NY) was used to measure the amount of bound peptide (biotin), per manufacturer's instructions. An aqueous solution of biotin (1.0 mg/mL) without peptides was used as a negative control.

[2] = test system: Rabbit conjunctival primary epithelial cells; assay: Live/dead staining and AlamarBlue cytotoxicity assessment; assay type: cell-based; details: 1.0 mg/ml, 24 h; data not shown
Experimental: Rabbit conjunctival primary epithelial cells were isolated as described previously in the main text. Cells were seeded in 96 well microplates for AlamarBlue assays (Life Technologies, NY) and live/dead staining at a density of 10,000 cells/cm^2. Cells were allowed to grow to about 90% confluence before experiments were carried out. Three different concentrations of HA-FL were tested: 1.0 mg/ml, 100 μg/ml and 10 μg/ml. SABpep and ColBpep were added to the medium for 24 h with a concentration of 1.0 mg/ml. Calcein AM and ethidium homodimer-1 (EthD-1; Life Technologies, NY) were used as live/dead staining agents according manufacture's manual, and cells were imaged using Zeiss Axio Imager 2 microscope. AlamarBlue assay was performed with quadruplets for every group. After 2 h incubation, the absorbance values at 570 nm on a Synergy 2 microplate reader were recorded.

Sequence	localisation of peptide staining on conjunctiva sections ([1]; 1 h, listed as SABpep-biotin)	staining of epithelium after preincubation of peptide with sialic acid ([1]; sialic acid 100 mM, 1 h, room temperature)	binding to conjunctival epithelium after sialidase digestion of the section ([1]; sialidase 60 U/ml, 1 h at 37° C. before staining)	amount of peptide bound to conjunctiva tissue (normalized to the dry weight) (conjunctiva tissue)	amount of peptide bound to conjunctiva tissue (normalized to the dry weight) (conjunctiva tissue; listed as peptide 3)	cytotoxicity to epithelial cells [2]	localisation of peptide staining on conjunctiva sections ([1]; 1 h, listed as ColBpep-biotin)	amount of peptide bound to conjunctiva tissue (normalized to the dry weight) (conjunctiva tissue; listed as peptide 6)
GGSPYGRC (also: biotin, position not given here) [SABpep]	binds selectively to epithelial lining of conjunctiva	still stained the epithelium	could not bind to conjunctival epithelium	the most promising candidates	bound the most	little to no cytotoxicity		
SYIRIADTNIT [ColBpep]				the most promising candidates		little to no cytotoxicity	binds to any collagen I on the tissue	bound the most
